The values below come from article PMC10836395, “Investigation of how gate residues in the main channel affect the catalytic activity of Scytalidium thermophilum catalase” (Acta Crystallographica. Section D, Structural Biology, 2024).

Structures are written as SMILES. Read-outs that look alike come from different tables or passages of the source. Marks after values point to notes of the source that are not given here.

Assay [1] has as its target T1, CATPO T188A variant (Scytalidium thermophilum (Humicola insolens), UniProt M4GGR5, T207A). The assay can be described thus: biochemical.
In assay [2] the target is T2, CATPO T188I variant (Scytalidium thermophilum (Humicola insolens), UniProt M4GGR5, T207I). Put plainly: biochemical.
In assay [3] the target is T3, CATPO T188F variant (Scytalidium thermophilum (Humicola insolens), UniProt M4GGR5, T207F). Put plainly: biochemical.
Assay [4] addresses T4, CATPO T188D variant (Scytalidium thermophilum (Humicola insolens), UniProt M4GGR5, T207D). Put plainly: biochemical.
In assay [5] the target is T5, CATPO E484D variant (Scytalidium thermophilum (Humicola insolens), UniProt M4GGR5, E503D). The assay can be described thus: biochemical.
For assay [6], the target named is T6, CATPO E484A variant (Scytalidium thermophilum (Humicola insolens), UniProt M4GGR5, E503A). Put plainly: biochemical.
The target of assay [7] is T7, CATPO E484I variant (Scytalidium thermophilum (Humicola insolens), UniProt M4GGR5, E503I). The assay can be described thus: biochemical.
For assay [8], the target named is T8, CATPO (Scytalidium thermophilum (Humicola insolens), UniProt M4GGR5). The assay can be described thus: Inhibition of catechol oxidation. Particulars: for inhibition type: catechol oxidase activity of wild-type CATPO, Lineweaver–Burk. Type of assay: biochemical.
In assay [9] the target is T4, CATPO T188D variant. The assay is classed as biochemical. Particulars: for K m: pH 7.0 (ABTS pH 5.0), 60°C.
Assay [10] deals with T7, CATPO E484I variant. Type of assay: biochemical. The conditions noted are these: for K m: pH 7.0 (ABTS pH 5.0), 60°C.
Assay [11] deals with T5, CATPO E484D variant. Type of assay: biochemical. The conditions noted are these: for K m: pH 7.0 (ABTS pH 5.0), 60°C.
Assay [12] concerns the target T1, CATPO T188A variant. The assay is classed as biochemical. The conditions noted are these: for K m: pH 7.0 (ABTS pH 5.0), 60°C.
The target in assay [13] is T3, CATPO T188F variant. The assay is classed as biochemical. The conditions noted are these: for K m: pH 7.0 (ABTS pH 5.0), 60°C.
For assay [14], the target named is T6, CATPO E484A variant. Put plainly: Substrate-specificity analysis of the phenol oxidase activity. Type of assay: biochemical. Particulars: for K m: pH 7.0 (ABTS pH 5.0), 60°C.
Assay [15] concerns the target T8, CATPO. The description is as above. Type of assay: biochemical.
Assay [16] deals with T2, CATPO T188I variant. The assay is classed as biochemical. The conditions noted are these: for K m: pH 7.0 (ABTS pH 5.0), 60°C.
[17] abbreviates: catechol oxidation by CATPO, catechol 1 to 100 mM, read-out: K i.

T3 sequence (M4GGR5 entry or part of it T207F): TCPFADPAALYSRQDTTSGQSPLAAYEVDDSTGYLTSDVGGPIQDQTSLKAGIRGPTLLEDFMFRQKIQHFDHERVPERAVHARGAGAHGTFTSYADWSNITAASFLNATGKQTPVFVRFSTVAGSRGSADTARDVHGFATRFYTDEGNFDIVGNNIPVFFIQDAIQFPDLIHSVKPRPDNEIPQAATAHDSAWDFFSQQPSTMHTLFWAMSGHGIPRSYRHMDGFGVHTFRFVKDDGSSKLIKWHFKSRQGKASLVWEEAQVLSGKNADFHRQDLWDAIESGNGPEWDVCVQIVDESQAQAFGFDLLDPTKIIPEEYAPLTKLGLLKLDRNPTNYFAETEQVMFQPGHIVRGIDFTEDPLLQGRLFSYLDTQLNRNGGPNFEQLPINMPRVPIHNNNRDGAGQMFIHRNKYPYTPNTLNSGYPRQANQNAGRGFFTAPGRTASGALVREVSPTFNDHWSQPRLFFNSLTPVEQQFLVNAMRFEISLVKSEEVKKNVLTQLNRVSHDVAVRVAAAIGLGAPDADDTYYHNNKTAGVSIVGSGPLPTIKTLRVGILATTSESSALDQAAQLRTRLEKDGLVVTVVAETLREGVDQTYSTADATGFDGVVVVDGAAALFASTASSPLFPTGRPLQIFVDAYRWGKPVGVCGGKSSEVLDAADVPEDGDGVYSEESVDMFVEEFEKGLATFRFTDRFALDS
T4 sequence (M4GGR5 entry or part of it T207D): as the sequence (M4GGR5 entry or part of it T207F) above
T8 sequence (M4GGR5 entry or part of it): as the sequence (M4GGR5 entry or part of it T207F) above
T5 sequence (M4GGR5 entry or part of it E503D): as the sequence (M4GGR5 entry or part of it T207F) above
T2 sequence (M4GGR5 entry or part of it T207I): as the sequence (M4GGR5 entry or part of it T207F) above
T1 sequence (M4GGR5 entry or part of it T207A): as the sequence (M4GGR5 entry or part of it T207F) above
T7 sequence (M4GGR5 entry or part of it E503I): as the sequence (M4GGR5 entry or part of it T207F) above
T6 sequence (M4GGR5 entry or part of it E503A): as the sequence (M4GGR5 entry or part of it T207F) above

On to `Nc1nc[nH]n1` [3TR, 3-amino-1,2,4-triazole], for which the Ki in [1] is 20 ± 0.2 mM; in [2], 42 ± 4 mM; in assay [3], 54 ± 4.5 mM; in assay [4], 41 ± 4.1 mM; in [5], 22 ± 3.2 mM; in assay [6], 65 ± 5.5 mM. The Ki in assay [7] came out at 40 ± 4 mM; in assay [8] (setting [17]) it was 21 ± 1 mM. Besides, the inhibition type result in assay [8] is on record as “competitive”.
`O=C(NO)c1ccccc1O` [Salicylhydroxamic acid, salicylhydroxamic acid]: the Ki was found to be 2.2 ± 0.4 mM in [1]; 5.4 ± 0.9 mM in assay [2]; 5.5 ± 0.7 mM in [3]; 5.4 ± 0.4 mM in assay [4]; 2 ± 0.4 mM in assay [5]; 6.7 ± 1.1 mM in assay [6]. The Ki was determined as 5.4 ± 0.5 mM in [7] and 2.2 ± 0.4 mM in assay [8]. For the same molecule, the inhibition type entry in [8] was “competitive”.
With `Oc1ccc(O)cc1` [Hydroquinone, p-hydroquinone], the Ki came to 8.6 ± 0.6 mM in assay [1]; 70 ± 4 mM in [2]; 76 ± 5.1 mM in assay [3]; 66 ± 5.5 mM in assay [4]; 8.5 ± 1.4 mM in assay [5]; 81 ± 4.7 mM in assay [6]. Moreover, the Ki in assay [7] is 70 ± 3.5 mM; in [8], 8.5 ± 0.5 mM. Further, the V max in assay [9] was 9600 ± 65 mM/min; in [10], 10000 ± 100 mM/min; in assay [11] it was 9900 ± 125 mM/min; in [12], 9850 ± 85 mM/min; in assay [13] it was 13000 ± 140 mM/min; in assay [14], 17800 ± 100 mM/min. The values for the V max in assay [15] and in assay [16] were 10000 ± 300 mM/min and 11000 ± 110 mM/min, respectively. Moreover, the “k cat/K m” value in assay [9] is reported as 480 ± 64 s^−1 M^−1 (×10^2); in assay [10], 460 ± 20 s^−1 M^−1 (×10^2); in [11], 300 ± 50 s^−1 M^−1 (×10^2); in assay [12], 300 ± 30 s^−1 M^−1 (×10^2); in assay [13], 530 ± 65 s^−1 M^−1 (×10^2); in assay [14], 600 ± 40 s^−1 M^−1 (×10^2). Further, the “k cat/K m” value in assay [15] is 750 ± 50 s^−1 M^−1 (×10^2); in assay [16], 490 ± 78 s^−1 M^−1 (×10^2). The K m in assay [9] worked out at 46 ± 1.0 mM; in [10] it was 45 ± 1.3 mM; in [11], 46 ± 0.8 mM; in assay [12], 46 ± 0.4 mM; in [13] it was 42 ± 1.0 mM; in assay [14], 43 ± 1.2 mM. For the same molecule, the K m in assay [15] (pH 7.0 (ABTS pH 5.0), 60°C) worked out at 45 ± 1.5 mM; in assay [16] it was 44 ± 0.4 mM.
With `CC(C)(C)c1ccc(O)c(O)c1` [1,4-tert-Butylcatechol, 4-tert-butylcatechol], the Ki in assay [1] is 2.1 ± 0.1 mM; in [2], 53 ± 4.5 mM; in assay [3] it was 59 ± 4.5 mM; in [4], 49 ± 3.2 mM; in assay [5] it was 2.2 ± 0.5 mM; in assay [6] it was 67 ± 7 mM. In addition, the Ki in assay [7] worked out at 50 ± 1.5 mM; in [8] (setting [17]), 2.1 ± 0.8 mM. In addition, the V max worked out at 18000 ± 500 mM/min in assay [9]; 28600 ± 430 mM/min in assay [10]; 18800 ± 144 mM/min in [11]; 19400 ± 568 mM/min in [12]; 41600 ± 340 mM/min in [13]; 65000 ± 745 mM/min in assay [14]. Also, the V max in assay [15] was 20000 ± 362 mM/min; in assay [16], 30500 ± 650 mM/min. The “k cat/K m” value in assay [9] is 6590 ± 150 s^−1 M^−1 (×10^2); in assay [10] it was 4450 ± 66 s^−1 M^−1 (×10^2); in assay [11] it was 1300 ± 100 s^−1 M^−1 (×10^2); in assay [12], 1460 ± 150 s^−1 M^−1 (×10^2); in [13], 5230 ± 145 s^−1 M^−1 (×10^2); in [14], 10000 ± 65 s^−1 M^−1 (×10^2). In addition, the “k cat/K m” value in [15] is 1240 ± 90 s^−1 M^−1 (×10^2); in assay [16] it was 4900 ± 410 s^−1 M^−1 (×10^2). Also, the K m was 38 ± 0.5 mM in [9]; 37 ± 0.4 mM in assay [10]; 38 ± 0.5 mM in [11]; 37 ± 1.0 mM in [12]; 34 ± 0.4 mM in assay [13]; 33 ± 0.5 mM in [14]. For the same molecule, the K m in assay [16] turned out to be 35 ± 0.5 mM.
For `[N-]=[N+]=[N-].[Na+]` [Sodium azide, sodium azide], the Ki in assay [1] (catechol oxidation by T188A, read-out: K i) came to 42 ± 1.4 mM; in assay [2] (catechol oxidation by T188I, read-out: K i), 60 ± 6 mM; in assay [3] (catechol oxidation by T188F, read-out: K i), 62 ± 2.5 mM; in [4] (catechol oxidation by T188D, read-out: K i), 55 ± 5 mM; in assay [5] (catechol oxidation by E484D, read-out: K i) it was 41 ± 4.1 mM; in [6] (catechol oxidation by E484A, read-out: K i), 74 ± 4.8 mM. The Ki in [7] (catechol oxidation by E484I, read-out: K i) is 56 ± 1.6 mM; in [8] (setting [17]), 42 ± 1.2 mM. In addition, the inhibition type result in assay [8] is recorded as “competitive”.
In the case of `Cc1ccc(O)c(O)c1` [4-Methylcatechol, 4-methylcatechol], the Ki was found to be 1.5 ± 0.4 mM in assay [1]; 40 ± 2.4 mM in [2]; 45 ± 4.8 mM in assay [3]; 50 ± 2.5 mM in assay [4]; 1.5 ± 0.1 mM in assay [5]; 55 ± 5 mM in assay [6]. Besides, the Ki came to 46 ± 2 mM in assay [7] and 1.5 ± 0.4 mM in [8] (setting [17]). Further, the V max is 28000 ± 970 mM/min in assay [9]; 41500 ± 840 mM/min in assay [10]; 20600 ± 712 mM/min in assay [11]; 21000 ± 880 mM/min in [12]; 54150 ± 800 mM/min in assay [13]; 75500 ± 550 mM/min in assay [14]. Further, the V max amounted to 21320 ± 845 mM/min in assay [15] and 43000 ± 900 mM/min in assay [16]. The “k cat/K m” value in [9] is reported as 7620 ± 100 s^−1 M^−1 (×10^2); in [10], 5480 ± 80 s^−1 M^−1 (×10^2); in [11], 1500 ± 88 s^−1 M^−1 (×10^2); in [12], 1640 ± 210 s^−1 M^−1 (×10^2); in assay [13], 6570 ± 560 s^−1 M^−1 (×10^2); in assay [14], 10100 ± 90 s^−1 M^−1 (×10^2). The “k cat/K m” value is on record as 1580 ± 110 s^−1 M^−1 (×10^2) in [15] and 6600 ± 600 s^−1 M^−1 (×10^2) in assay [16]. For the same molecule, the K m in assay [9] came to 30 ± 0.1 mM; in [10] it was 35 ± 0.7 mM; in [11] it was 36 ± 0.1 mM; in assay [12] it was 35 ± 1.0 mM; in [13], 32 ± 1.0 mM; in [14], 33 ± 1.0 mM. Further, the K m in [16] was 34 ± 1.2 mM.
